Literature values in patent publication US20080319079A1 (priority 2006, published 2008).

How the values were obtained:
[1] = tested on: patients with reversible obstructive respiratory diseases; conditions: for duration of action (bronchodilation): patients with asthma and related respiratory illnesses, inhalation
[2] = repeated doses administered frequently up to a maximum dose of 80 μg per day

SMILES	duration of action (bronchodilation) [1]	side effects [2]	onset of action ([1]; after inhalation)
CC(C)(C)NCC(O)c1ccc(O)c(CO)c1 (centres unmarked) [salbutamol]	four to six	–	–
COc1ccc(CC(C)NCC(O)c2ccc(O)c(NC=O)c2)cc1 (centres unmarked) [formoterol, N-[2-hydroxy-5-(1-hydroxy-2-((2-(4-methoxyphenyl)-1-methylethyl)-amino)-ethyl)phenyl]formamide]	–	no more side effects than short acting bronchodilators	–
OCc1cc(C(O)CNCCCCCCOCCCCc2ccccc2)ccc1O (centres unmarked) [Salmeterol]	twelve	–	approximately thirty
CC(C)(C)NCC(O)c1cc(O)cc(O)c1 (centres unmarked) [terbutaline]	four to six	–	–
